Results as given in paper PMC5352362, “Molecular and functional evaluation of a novel HIF inhibitor, benzopyranyl 1,2,3-triazole compound” (Oncotarget, 2016).

Legend:
[1] = test system: HIF-1 (5xHRE-Luc reporter in HEK-293 cells); test: Dual-luciferase HRE reporter assay under hypoxia; assay type: cell-based; conditions: Homo sapiens, HEK293, hypoxia 1% O2, 24 h, compared to hypoxic control, read-out: inhibition of hypoxia-induced HRE Luc reporter activity (HIF-1α transactivation)
Protocol: To identify active inhibitors of HIF-1α, a cell-based reporter assay was performed. HEK-293 cells were co-transfected with pGL3-5xHRE-Luc plasmid harboring five copies of hypoxia responsive element (HRE) from the VEGF gene promoter, and with pRL-SV40 encoding Renilla genes. The HRE-containing promoter of the HIF-1 target genes is regulated by HIF-1 activation. Transfected cells were treated with chemical compounds at 1 μM and were exposed to hypoxic conditions (1% O2) for 24 h, and then were assayed. Echinomycin (E), a well-known HIF-1α inhibitor, was used as a positive control. Compared to normoxic control conditions, hypoxia increased this luciferase reporter's activity by approximately three-fold.
Figure 1 Screening of 144 compounds from an in-house chemical library for inhibition of HIF-1 activity HEK-293 cells were co-transfected with luciferase reporter plasmids (pGL3-HRE-luciferase) and Renilla vector (pRL-SV40). Cells were exposed to hypoxic conditions in the presence or absence of chemicals for 24 h, and were then lysed for assays of luciferase activity. […]
HEK-293 cells were seeded onto 96-well plates at a density of 5 × 10^3 cells/well, and allowed to attach for 24 h. […] Firefly luminescence was measured using a microplate reader (Infinite M200 Pro, TECAN, Männedorf, Switzerland). […] Renilla luminescence was measured using a microplate reader. […]

HIF-1α = HIF-1α (Homo sapiens, UniProt Q16665); test: HIF-1α ubiquitination, IP/IB with MG132 in A549 cells; assay type: cell-based; conditions: hypoxia 16 h, then MG132 20 μM 4 h, compared to normoxic control cells
Protocol: Figure 4 Compound 12 increased hydroxylation and proteasome-mediated degradation of HIF-1α (A) A549 cells were treated with Compound 12 (at concentrations of 0 nM, 1 nM, 10 nM, and 100 nM) for 16 h. Cells were fixed with paraformaldehyde; an immunofluorescence assay was then performed using anti-HIF-1α antibodies and Alexa Fluor 488-labeled secondary antibodies (green). Nuclei were stained with DAPI. N, normoxia; H, hypoxia. (B) A549 cells were treated with Compound 12 (10 nM concentration) and exposed to hypoxic conditions for 16 h. Cells were immediately treated with cycloheximide (CHX, 100 μg/mL) for the time indicated, and HIF-1α protein levels were determined by western blotting. β-actin was used as an internal control. Half-life (t1/2) of HIF-1α protein was determined using relative expression levels of HIF-1α. (C) A549 cells were treated with Compound 12 (at concentrations of 0 nM, 1 nM, 10 nM, and 100 nM) for 16 h. The expression levels of HIF-1α, hydroxylated (OH)-HIF-1α at P402 or P564, and PHD2 were determined via western blotting using specific antibodies. N, normoxia; H, hypoxia. (D) A549 cells were transfected with two kinds of small interfering RNAs targeting PHD2 and then treated with Compound 12 under hypoxic exposure for 16 h. Cell lysates were immunoblotted with an anti-HIF-1α and PHD2 antibody. […] Relative levels of ubiquitinated HIF-1α were quantified and graphed. […]

HUVECs = test: Matrigel tube formation assay, VEGF-induced; assay type: cell-based, human; conditions: VEGF 20 ng/mL, 24 h

Sequence of HIF-1α (Q16665 whole entry): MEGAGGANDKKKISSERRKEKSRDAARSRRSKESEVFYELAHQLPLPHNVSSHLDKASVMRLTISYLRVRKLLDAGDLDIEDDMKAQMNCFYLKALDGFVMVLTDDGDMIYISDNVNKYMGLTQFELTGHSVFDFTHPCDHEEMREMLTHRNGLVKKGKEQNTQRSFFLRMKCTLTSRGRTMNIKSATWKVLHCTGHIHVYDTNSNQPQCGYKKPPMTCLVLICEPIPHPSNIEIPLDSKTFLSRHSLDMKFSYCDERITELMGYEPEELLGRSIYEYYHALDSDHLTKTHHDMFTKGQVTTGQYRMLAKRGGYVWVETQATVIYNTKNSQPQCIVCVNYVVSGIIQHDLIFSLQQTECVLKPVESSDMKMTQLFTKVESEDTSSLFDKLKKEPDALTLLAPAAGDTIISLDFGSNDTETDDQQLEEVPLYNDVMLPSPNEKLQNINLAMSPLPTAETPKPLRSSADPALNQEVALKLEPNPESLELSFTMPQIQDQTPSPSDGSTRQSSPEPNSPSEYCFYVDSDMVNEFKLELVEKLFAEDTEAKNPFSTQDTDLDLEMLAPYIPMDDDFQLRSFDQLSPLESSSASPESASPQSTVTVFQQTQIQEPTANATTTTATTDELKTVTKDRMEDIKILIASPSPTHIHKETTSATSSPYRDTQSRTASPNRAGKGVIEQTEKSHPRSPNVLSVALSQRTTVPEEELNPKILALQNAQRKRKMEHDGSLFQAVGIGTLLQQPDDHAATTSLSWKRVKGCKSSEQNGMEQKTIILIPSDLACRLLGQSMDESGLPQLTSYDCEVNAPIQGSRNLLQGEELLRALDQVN

Structure (SMILES): COc1ccc(-c2cn(CC3(C)C=Cc4cc([N+](=O)[O-])ccc4O3)nn2)cc1 (stereo not drawn) [Compound 12, 4-(4-methoxyphenyl)-1-((2-methyl-6-nitro-2H-chromen-2-yl)methyl)-1H-1,2,3-triazole]
- inhibition at 1 µM [1]: 50%
- ubiquitination of HIF-1α (HIF-1α): significantly increased
- VEGF-induced tube formation (HUVECs): significantly inhibited
